From PubChem BioAssay AID1419 (Emory University Molecular Libraries Screening Center, 2008) come the findings set out here.

The source made the active and inactive calls. The rule behind the calls is not given here. Bounds are passed on as bounds.

The nature of this test: EBV protein-peptide binding inhibitors, dose response, biochemical, fluorescence polarization (AID 1419). As to conditions: cell-free protein-peptide binding, 2 h; for fold change: measured here: P channel fold over control, at 54 µM.

Take `COc1ccc2c(c1)c1nc3ccccc3nc1n2CC(=O)OC(C)C`: the IC50 was 1.21 µM and the fold change worked out at 6.79.

Turning to `Nc1ccc2nc3c(=O)n(CCc4ccccc4)c(=O)[nH]c3nc2c1`, the IC50 was < 0.42 µM and the fold change came out at 94.8.

With `COc1ccccc1Nc1nc2ccc(C)cc2cc1C#N`, the IC50 is 16.6 µM and the fold change was determined as 2.74.

As for `CCOc1ccc(C2CC(c3c(O)c4ccccc4oc3=O)=NN2c2ccccc2)cc1OC` (centres undefined), the IC50 was 2.06 µM and the fold change is 49.3.

Consider `O=c1cc2oc3cc(O)c(O)cc3c(-c3ccccc3O)c-2cc1O`, for which the IC50 is 5.29 µM and the fold change is 232.

For `Cc1cc(N(CCCl)CCCl)ccc1/C=N/NC(=O)c1ccco1`, the IC50 was > 54 µM (inactive) and the fold change amounted to 1.06.

With `COc1ccc(C2C(C(=O)c3cccs3)=C(O)C(=O)N2c2nnc(C)s2)cc1OC` (centres undefined), the IC50 is 3.11 µM and the fold change was 10.8.

`CN(C)c1ccc(/C=C/C(=O)c2cccc(Br)c2)cc1`: the IC50 was 8.66 µM and the fold change worked out at 11.4.

With `Cc1cc(-c2cccs2)c2c(N)c(C(=O)c3ccc4c(c3)OCO4)sc2n1`, the IC50 was 5.56 µM and the fold change amounted to 6.29.

Turning to `O=C(CSc1n[nH]c(=O)[nH]c1=O)Nc1ccc2c(c1)C(=O)c1ccccc1C2=O`, the IC50 is 9.26 µM and the fold change came to 1.21.

Turning to `O=C(CSc1nc(-c2ccc(F)cc2)nc2c1Cc1ccccc1O2)Nc1ccc(C(=O)O)cc1`, the IC50 was 2.9 µM and the fold change was found to be 1.11.

As to `O=C(Nc1ccc2[nH]c3c(c2c1)CCCC3)c1ccco1`, the IC50 is 27.9 µM and the fold change was 2.83.

Take `Cc1cc2c(cc1C)NC(c1c(C)n(C)n(-c3ccccc3)c1=O)C1=C(CC(C)(C)CC1=O)N2` (centres undefined): the IC50 is 3.25 µM and the fold change came out at 3.49.

Consider `Cc1ccsc1C1C=C(c2cccc(Br)c2)Nc2ncnn21` (centres undefined), for which the IC50 was 1.75 µM and the fold change stood at 3.13.

For the compound `COc1ccc2nc(N3CCCC(O)C3)c(C#N)cc2c1` (centres undefined), the IC50 is 14.6 µM and the fold change was determined as 2.78.

As for `Nc1ccc2c(c1Cl)C(=O)c1ccc(N)c(Cl)c1C2=O`, the concentration for half-maximal inhibition (IC50) was 11.4 µM and the fold change was found to be 1.07.

As to `C=CCc1cccc2cc(C(=O)Nc3ccc(S(=O)(=O)Nc4nnc(CC)s4)cc3)c(=O)oc12`, the IC50 was > 54 µM (inactive) and the fold change is 1.08.

As for `O=C1NC(=O)C2=Cc3ccc(O)cc3OC2(O)N1` (centres undefined), the IC50 is < 0.42 µM and the fold change was 100.

For the compound `COc1ccc(N2C(=O)[C@@H]3[C@H](C2=O)[C@H]2c4ccccc4C=CN2[C@@H]3C(C)=O)cc1`, the IC50 is 7.62 µM and the fold change came to 5.55.

Regarding `CN1CC=C2C(C#N)=C(N)C(C#N)(C#N)[C@H](c3ccoc3)[C@H]2C1`, the IC50 is > 54 µM (inactive) and the fold change came out at 1.96.

On to `O=C(OCCN1C(=O)c2cccc3c(N4CCOCC4)ccc(c23)C1=O)c1ccc(Cl)cc1`, for which the IC50 is 4.07 µM and the fold change turned out to be 53.3.

For `Cc1cc(=O)oc2cc(OCC(=O)N/N=C/c3cc([N+](=O)[O-])ccc3O)ccc12`, the IC50 was 4.65 µM and the fold change amounted to 1.

As for `COc1ccccc1NC(=O)C(=O)N/N=C/c1ccc([N+](=O)[O-])s1`, the IC50 was > 54 µM (inactive) and the fold change worked out at 1.09.

As for `Nc1cccc2c1C(=O)N(CC(=O)NC13CC4CC(CC(C4)C1)C3)C2=O`, the IC50 is 8.06 µM and the fold change amounted to 2.22.

Turning to `Cc1cc2nc3c(=O)n(CCc4ccccc4)c(=O)[nH]c3nc2cc1N`, the IC50 is < 0.42 µM and the fold change came to 115.

Turning to `CCN(CC)c1ccc2c(c1)oc(=O)c1c(Cl)cc(=O)oc12`, the IC50 was 6.37 µM and the fold change stood at 11.9.

Turning to `CC(C)C[C@H]1C(=O)N2CCCC2[C@]2(O)O[C@](NC(=O)[C@@H]3C=C4c5cccc6[nH]cc(c56)CC4N(C)C3)(C(C)C)C(=O)N12` (some centres undefined), the IC50 is 8.52 µM and the fold change came out at 2.39.

As to `CCC1(CC)NC(=O)N(CC(=O)Nc2sc3c(c2C(N)=O)CCC3)C1=O`, the IC50 was > 54 µM (inactive) and the fold change was 1.23.

For `COc1ccc(C2CC(c3cccs3)=NN2c2ccc(C=O)cc2)cc1` (centres undefined), the IC50 is 16.2 µM and the fold change came to 15.4.

Turning to `O=C(Nc1nnc(Cc2ccccc2)s1)c1cnccn1`, the IC50 was > 54 µM (inactive) and the fold change came to 1.06.

For `COc1ccc(C2CC(c3ccccc3)n3nc(NC(=O)c4cccs4)nc3N2)cc1` (centres undefined), the IC50 was > 54 µM (inactive) and the fold change came to 0.943.

Turning to `Nc1cccc(C(=O)OCC(=O)Nc2cccc3c2C(=O)c2ccccc2C3=O)c1`, the 50% inhibitory concentration (IC50) was 1.81 µM and the fold change amounted to 2.03.

In the case of `O=C1NC(=Nc2ccc(Cl)cc2)/C(=C/c2ccco2)S1`, the IC50 is 7.25 µM and the fold change is 0.667.

For `Cc1cc(C)n2c(SC/C(O)=C(\C#N)c3nc4ccccc4[nH]3)nnc2n1`, the half-maximal inhibitory concentration (IC50) was 20.1 µM and the fold change amounted to 1.1.

On to `O=S(=O)(Nc1nc2ccccc2nc1-[n+]1cccc(N=C([O-])c2ccccc2Cl)c1)c1ccccc1`, for which the half-inhibitory concentration (IC50) is 1.13 µM and the fold change was found to be 2.79.

On to `COc1ccc2nc(N3C(=O)/C(=C/c4ccc(Cl)cc4)NC3=S)sc2c1`, for which the IC50 is > 54 µM (inactive) and the fold change stood at 1.37.

Turning to `COc1ccc(OC)c(/C=c2\sc3nc(-c4cccs4)nn3c2=O)c1`, the IC50 was 6.04 µM and the fold change came to 5.71.

Regarding `COc1ccc(NC(=O)CCl)cn1`, the IC50 is 2.57 µM and the fold change was 2.89.

In the case of `Cn1c(=O)c(Nc2ccc(O)cc2)c2c3c(cccc31)C(=O)c1ccccc1-2`, the IC50 was < 0.42 µM and the fold change stood at 3.86.

Turning to `C/C=C/C=C/[C@H]1Cc2cc(O)cc(O)c2O1`, the IC50 is 13 µM and the fold change was 2.04.

In the case of `O=c1oc2cc(O)ccc2cc1-c1nc2c(s1)CCc1ccccc1-2`, the half-inhibitory concentration (IC50) was < 0.42 µM and the fold change stood at 37.6.

Take `NS(=O)(=O)c1ccc(NC(=O)c2ccc(-c3ccccc3)cc2)cc1`: the IC50 was 25.1 µM and the fold change worked out at 1.08.

`COCCCNC(=O)c1ccc2c3c(onc13)-c1ccccc1C2=O`: the concentration for half-maximal inhibition (IC50) was < 0.42 µM and the fold change was 217.

As for `Cc1oc2cc(O)ccc2c(=O)c1-c1nncn1-c1ccccc1`, the half-inhibitory concentration (IC50) is 0.46 µM and the fold change is 10.9.

With `CCCCn1c(=O)[nH]c2nc3cc(NC(C)=O)ccc3nc2c1=O`, the IC50 was 3.91 µM and the fold change amounted to 3.87.

With `Cc1ccccc1-n1c(SCc2c(C)noc2C)nnc1-c1cccnc1`, the IC50 is 3.57 µM and the fold change came out at 4.88.

`CCOC(=O)C1=NNC(C(=O)c2ccc(Cl)cc2)C1c1ccc(OC)cc1` (centres undefined): the IC50 was > 54 µM (inactive) and the fold change was found to be 0.933.

As for `COc1ccc2nc(N3CCCCC3)c(C#N)cc2c1`, the IC50 was 4.61 µM and the fold change was 3.52.

`O=C(COC(=O)c1ccc(NS(=O)(=O)c2cccs2)cc1)NCc1ccco1`: the IC50 was > 54 µM (inactive) and the fold change was 1.01.

Turning to `Cc1nnc(N2C(=O)C(O)=C(C(=O)c3ccco3)C2c2ccc(C(C)C)cc2)s1` (centres undefined), the IC50 is 2.2 µM and the fold change was determined as 3.11.

As to `Cc1cccc2cc3c(N)c(C(=O)N4CCCc5ccccc54)sc3nc12`, the IC50 was 9.62 µM and the fold change was found to be 4.66.

As to `Cc1[nH]c(=O)[nH]c(=O)c1S(=O)(=O)N1CCN(c2ccccc2F)CC1`, the IC50 is > 54 µM (inactive) and the fold change was 1.04.

Consider `O=c1cc(-c2ccccc2)nc2c(-c3ccccc3)c(C(F)(F)F)[nH]n12`, for which the IC50 was > 54 µM (inactive) and the fold change was 1.02.

Take `Cc1cccc2cc(/C=C3\N=C(c4ccccc4)OC3=O)c(N3CCOCC3)nc12`: the 50% inhibitory concentration (IC50) is 13.2 µM and the fold change came out at 12.5.

`Cc1cc(C)cc(-n2c(O)c(C=Nc3ccc(N4CCOCC4)cc3)c(=O)[nH]c2=S)c1`: the IC50 was > 54 µM (inactive) and the fold change is 2.23.

`CC(=O)Nc1nc(C)c(-c2csc(Nc3cccc([N+](=O)[O-])c3)n2)s1`: the IC50 was > 54 µM (inactive) and the fold change was determined as 0.71.

For `N=C1CCC(=N)c2c1c(O)c1ccccc1c2O`, the IC50 was < 0.42 µM and the fold change turned out to be 41.5.

In the case of `Clc1ccc(OCc2nnc(-c3ccccc3Br)o2)c(Cl)c1`, the IC50 is > 54 µM (inactive) and the fold change is 1.

With `O=C1C2CC=C(Cl)CC2C(=O)N1CCCCCCN1C(=O)C2CC=C(Cl)CC2C1=O` (centres undefined), the IC50 was 6.72 µM and the fold change was 1.89.

For the compound `N#C/C(=C\C1=C(N2CCOCC2)C(=C\c2ccc(Cl)cc2)/CC1)C(=O)Nc1ccccc1F`, the IC50 is 3.43 µM and the fold change amounted to 4.49.

Regarding `Cc1cc(/C=C(\C#N)c2nc3ccccc3[nH]2)c(C)n1C`, the IC50 is 1.32 µM and the fold change came out at 6.63.

As to `O=C(COc1ccccc1Cl)c1ccc[nH]1`, the IC50 was > 54 µM (inactive) and the fold change is 1.08.

Take `Cn1cccc1/C=C1/C(=O)NC(=O)N(Cc2ccc(F)cc2)C1=O`: the IC50 was > 54 µM (inactive) and the fold change amounted to 1.04.

Regarding `Cc1nnc(NC(=O)COc2ccc3c(C)cc(=O)oc3c2)s1`, the IC50 is > 54 µM (inactive) and the fold change was 1.06.

In the case of `N#Cc1c(N)sc(=S)c2c1CCCC2`, the IC50 is > 54 µM (inactive) and the fold change is 1.09.

As for `CCCN1C(=O)c2cccc3c(N4CCCCC4)ccc(c23)C1=O`, the IC50 is > 54 µM (inactive) and the fold change is 15.2.

With `Cc1[nH]c(=O)[nH]c(=O)c1CSCC(=O)OCC(=O)Nc1ccccn1`, the IC50 is > 54 µM (inactive) and the fold change worked out at 1.09.

A word on the IC50: it is the concentration that inhibits the measured activity by half.
